Experiment [1] concerns the target glucosylceramide synthase (GCS) (Homo sapiens (Human), UniProt Q16739). The experiment is described as follows: Evaluation of inhibitory activities against GCS (enzyme reaction with A549 cell lysate, NBD C6-ceramide, HPLC fluorescence). The format is biochemical. The conditions noted are these: GCS activity in A549 cell lysate, 37° C. for 90 minutes. Put shortly: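 Lysate of A549 cells in 50 mM HEPES pH 7.3 incubated with test compound and NBD C6-ceramide at 37 °C for 90 min; lipids extracted with chloroform/methanol and GlcCer and ceramide peaks quantified by HPLC fluorescence. Activity from GlcCer area fraction, normalised between DMSO and ibiglustat controls.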

Experiment [2] relates to GM1 production. The experiment is described as follows: cells. The format is cell-based.

Molecules are shown by their SMILES. pIC50: −log10 of the molar value. Read-outs that look alike come from different tables or passages of the source.

The source of these data is patent US12338237B2, “Derivatives having 1,2,3,4-tetrahydronaphthalene moiety or pharmaceutically acceptable salt thereof and pharmaceutical compositions comprising the same” (YUHAN CORPORATION, priority 2019, dated 2025).

Sequence of glucosylceramide synthase (GCS) (Q16739 whole entry, looked up): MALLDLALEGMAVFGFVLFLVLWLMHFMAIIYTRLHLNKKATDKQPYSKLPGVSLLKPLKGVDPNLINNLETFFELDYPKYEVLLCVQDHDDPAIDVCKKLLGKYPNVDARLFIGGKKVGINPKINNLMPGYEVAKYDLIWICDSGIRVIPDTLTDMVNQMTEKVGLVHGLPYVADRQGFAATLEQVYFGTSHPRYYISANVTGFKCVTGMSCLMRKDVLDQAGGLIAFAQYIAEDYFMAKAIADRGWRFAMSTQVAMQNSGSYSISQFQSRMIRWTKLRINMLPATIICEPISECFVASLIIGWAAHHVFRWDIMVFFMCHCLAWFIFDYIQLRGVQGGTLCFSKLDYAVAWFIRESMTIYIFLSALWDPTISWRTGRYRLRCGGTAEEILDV

For `CCc1cccc(-c2ccc3c(c2)CCC(C)(C)C3NC(=O)O[C@@H]2CN3CCC2CC3)c1` (stereo partly drawn) [Example 127, (S)-quinuclidin-3-yl (6-(3-ethylphenyl)-2,2-dimethyl-1,2,3,4-tetrahydronaphthalen-1-yl)carbamate], the pIC50 (in general, −log10 of the IC50, conventionally taken in molar units) is 8.72 in experiment [1] and 8.70 in experiment [2] (Homo sapiens, Jurkat, 72 h).
As for `CC(C)(C)c1cccc(-c2ccc3c(c2)CCC(C)(C)C3NC(=O)O[C@@H]2CN3CCC2CC3)c1` (stereo partly drawn) [Example 128, (S)-quinuclidin-3-yl (6-(3-(tert-butyl)phenyl)-2,2-dimethyl-1,2,3,4-tetrahydronaphthalen-1-yl)carbamate], the pIC50 in experiment [1] was 8.55; in experiment [2] (Homo sapiens, Jurkat, 72 h), 8.89.
Take `CC(C)c1cccc(-c2ccc3c(c2)CCC(C)(C)C3NC(=O)O[C@@H]2CN3CCC2CC3)c1` (stereo partly drawn) [Example 129, (S)-quinuclidin-3-yl (6-(3-isopropylphenyl)-2,2-dimethyl-1,2,3,4-tetrahydronaphthalen-1-yl)carbamate]: the pIC50 in experiment [1] was 8.68; in experiment [2] (Homo sapiens, Jurkat, 72 h), 8.89.
In the case of `CC1(C)CCc2cc(-c3cccc(C(F)F)c3)ccc2C1NC(=O)O[C@@H]1CN2CCC1CC2` (stereo partly drawn) [Example 130, (S)-quinuclidin-3-yl (6-(3-(difluoromethyl)phenyl)-2,2-dimethyl-1,2,3,4-tetrahydronaphthalen-1-yl)carbamate], the negative-log IC50 (pIC50) in experiment [1] was 8.91; in experiment [2] (Homo sapiens, Jurkat, 72 h) it was 8.89.
For `CN(C)c1cccc(-c2ccc3c(c2)CCC(C)(C)C3NC(=O)O[C@@H]2CN3CCC2CC3)c1` (stereo partly drawn) [Example 131, (S)-quinuclidin-3-yl (6-(3-(dimethylamino)phenyl)-2,2-dimethyl-1,2,3,4-tetrahydronaphthalen-1-yl)carbamate], the pIC50 in experiment [1] was 8.83; in experiment [2] (Homo sapiens, Jurkat, 72 h), 8.64.
Consider `CC(C)Oc1cccc(-c2ccc3c(c2)CCC(C)(C)C3NC(=O)O[C@@H]2CN3CCC2CC3)c1` (stereo partly drawn) [Example 132, (S)-quinuclidin-3-yl (6-(3-isopropoxyphenyl)-2,2-dimethyl-1,2,3,4-tetrahydronaphthalen-1-yl)carbamate], for which the negative-log IC50 (pIC50) in experiment [1] was 8.94; in experiment [2] (Homo sapiens, Jurkat, 72 h) it was 8.70.
In the case of `COc1cccc(-c2ccc3c(c2)CCC(C)(C)C3NC(=O)O[C@@H]2CN3CCC2CC3)c1OC` (stereo partly drawn) [Example 133, (S)-quinuclidin-3-yl (6-(2,3-dimethoxyphenyl)-2,2-dimethyl-1,2,3,4-tetrahydronaphthalen-1-yl)carbamate], the negative logarithm of the IC50 (pIC50) in experiment [1] is 8.98; in experiment [2] (Homo sapiens, Jurkat, 72 h), 9.00.
Regarding `COc1ccc(-c2ccc3c(c2)CCC(C)(C)C3NC(=O)O[C@@H]2CN3CCC2CC3)c(OC)c1` (stereo partly drawn) [Example 134, (S)-quinuclidin-3-yl (6-(2,4-dimethoxyphenyl)-2,2-dimethyl-1,2,3,4-tetrahydronaphthalen-1-yl)carbamate], the negative-log IC50 (pIC50) in experiment [1] was 8.53; in experiment [2] (Homo sapiens, Jurkat, 72 h), 8.18.
The corresponding values for `COc1ccc(OC)c(-c2ccc3c(c2)CCC(C)(C)C3NC(=O)O[C@@H]2CN3CCC2CC3)c1` (stereo partly drawn) [Example 135, (S)-quinuclidin-3-yl (6-(2,5-dimethoxyphenyl)-2,2-dimethyl-1,2,3,4-tetrahydronaphthalen-1-yl)carbamate] are 8.55 and 8.08.
Take `COc1cccc(OC)c1-c1ccc2c(c1)CCC(C)(C)C2NC(=O)O[C@@H]1CN2CCC1CC2` (stereo partly drawn) [Example 136, (S)-quinuclidin-3-yl (6-(2,6-dimethoxyphenyl)-2,2-dimethyl-1,2,3,4-tetrahydronaphthalen-1-yl)carbamate]: the pIC50 is 8.04 in experiment [1] and 7.67 in experiment [2] (Homo sapiens, Jurkat, 72 h).
For `COc1ccc(-c2ccc3c(c2)CCC(C)(C)C3NC(=O)O[C@@H]2CN3CCC2CC3)cc1OC` (stereo partly drawn) [Example 137, (S)-quinuclidin-3-yl (6-(3,4-dimethoxyphenyl)-2,2-dimethyl-1,2,3,4-tetrahydronaphthalen-1-yl)carbamate], the pIC50 in experiment [1] is 8.67; in experiment [2] (Homo sapiens, Jurkat, 72 h) it was 8.08.
Take `COc1cc(OC)cc(-c2ccc3c(c2)CCC(C)(C)C3NC(=O)O[C@@H]2CN3CCC2CC3)c1` (stereo partly drawn) [Example 138, (S)-quinuclidin-3-yl (6-(3,5-dimethoxyphenyl)-2,2-dimethyl-1,2,3,4-tetrahydronaphthalen-1-yl)carbamate]: the negative logarithm of the IC50 (pIC50) in experiment [1] was 8.92; in experiment [2] (Homo sapiens, Jurkat, 72 h), 8.42.
As for `COc1ccc(-c2ccc3c(c2)CCC(C)(C)C3NC(=O)O[C@@H]2CN3CCC2CC3)cc1Cl` (stereo partly drawn) [Example 139, (S)-quinuclidin-3-yl (6-(3-chloro-4-methoxyphenyl)-2,2-dimethyl-1,2,3,4-tetrahydronaphthalen-1-yl)carbamate], the negative logarithm of the IC50 (pIC50) in experiment [1] is 8.32; in experiment [2] (Homo sapiens, Jurkat, 72 h), 8.06.
In the case of `CCOc1ccc(-c2ccc3c(c2)CCC(C)(C)C3NC(=O)O[C@@H]2CN3CCC2CC3)cc1Cl` (stereo partly drawn) [Example 140, (S)-quinuclidin-3-yl (6-(3-chloro-4-ethoxyphenyl)-2,2-dimethyl-1,2,3,4-tetrahydronaphthalen-1-yl)carbamate], the pIC50 was 8.83 in experiment [1] and 8.85 in experiment [2] (Homo sapiens, Jurkat, 72 h).
Turning to `CCCOc1ccc(-c2ccc3c(c2)CCC(C)(C)C3NC(=O)O[C@@H]2CN3CCC2CC3)cc1Cl` (stereo partly drawn) [Example 141, (S)-quinuclidin-3-yl (6-(3-chloro-4-propoxyphenyl)-2,2-dimethyl-1,2,3,4-tetrahydronaphthalen-1-yl)carbamate], the pIC50 in experiment [1] is 8.82; in experiment [2] (Homo sapiens, Jurkat, 72 h), 8.96.
As to `CC(C)Oc1ccc(-c2ccc3c(c2)CCC(C)(C)C3NC(=O)O[C@@H]2CN3CCC2CC3)cc1F` (stereo partly drawn) [Example 142, (S)-quinuclidin-3-yl (6-(3-fluoro-4-isopropoxyphenyl)-2,2-dimethyl-1,2,3,4-tetrahydronaphthalen-1-yl)carbamate], the pIC50 in experiment [1] is 8.95; in experiment [2] (Homo sapiens, Jurkat, 72 h), 8.47.
Turning to `CCCCOc1ccc(-c2ccc3c(c2)CCC(C)(C)C3NC(=O)O[C@@H]2CN3CCC2CC3)cc1Cl` (stereo partly drawn) [Example 143, (S)-quinuclidin-3-yl (6-(4-butoxy-3-chlorophenyl)-2,2-dimethyl-1,2,3,4-tetrahydronaphthalen-1-yl)carbamate], the pIC50 in experiment [1] is 8.84; in experiment [2] (Homo sapiens, Jurkat, 72 h), 9.30.
For `CCOc1ccc(-c2ccc3c(c2)CCC(C)(C)C3NC(=O)O[C@@H]2CN3CCC2CC3)cc1F` (stereo partly drawn) [Example 144, (S)-quinuclidin-3-yl (6-(4-ethoxy-3-fluorophenyl)-2,2-dimethyl-1,2,3,4-tetrahydronaphthalen-1-yl)carbamate] the same measures were 8.86 and 8.80.
As to `CCCOc1ccc(-c2ccc3c(c2)CCC(C)(C)C3NC(=O)O[C@@H]2CN3CCC2CC3)cc1F` (stereo partly drawn) [Example 145, (S)-quinuclidin-3-yl (6-(3-fluoro-4-propoxyphenyl)-2,2-dimethyl-1,2,3,4-tetrahydronaphthalen-1-yl)carbamate], the pIC50 in experiment [1] is 9.06; in experiment [2] (Homo sapiens, Jurkat, 72 h), 9.15.
Consider `CCCOc1c(C)cc(-c2ccc3c(c2)CCC(C)(C)C3NC(=O)O[C@@H]2CN3CCC2CC3)cc1C` (stereo partly drawn) [Example 146, (S)-quinuclidin-3-yl (6-(3,5-dimethyl-4-propoxyphenyl)-2,2-dimethyl-1,2,3,4-tetrahydronaphthalen-1-yl) carbamate], for which the negative logarithm of the IC50 (pIC50) in experiment [1] was 8.74; in experiment [2] (read-out: IC50), 9.10.
In the case of `CCCCOc1c(C)cc(-c2ccc3c(c2)CCC(C)(C)C3NC(=O)O[C@@H]2CN3CCC2CC3)cc1C` (stereo partly drawn) [Example 147, (S)-quinuclidin-3-yl (6-(4-butoxy-3,5-dimethylphenyl)-2,2-dimethyl-1,2,3,4-tetrahydronaphthalen-1-yl)carbamate], the pIC50 in experiment [1] is 9.00; in experiment [2] (Homo sapiens, Jurkat, 72 h) it was 10.00.
The corresponding values for `COc1ccc(-c2ccc3c(c2)CCC(C)(C)C3NC(=O)O[C@@H]2CN3CCC2CC3)c(F)c1` (stereo partly drawn) [Example 148, (S)-quinuclidin-3-yl (6-(2-fluoro-4-methoxyphenyl)-2,2-dimethyl-1,2,3,4-tetrahydronaphthalen-1-yl)carbamate] are 8.49 and 8.34.
As to `CC(C)Oc1ccc(-c2ccc3c(c2)CCC(C)(C)C3NC(=O)O[C@@H]2CN3CCC2CC3)cc1Cl` (stereo partly drawn) [Example 149, (S)-quinuclidin-3-yl (6-(3-chloro-4-isopropoxyphenyl)-2,2-dimethyl-1,2,3,4-tetrahydronaphthalen-1-yl)carbamate], the pIC50 in experiment [1] was 8.46; in experiment [2] (Homo sapiens, Jurkat, 72 h), 8.41.
`CC(=O)c1sccc1-c1ccc2c(c1)CCC(C)(C)C2NC(=O)O[C@@H]1CN2CCC1CC2` (stereo partly drawn) [Example 150, (S)-quinuclidin-3-yl (6-(2-acetylthiophen-3-yl)-2,2-dimethyl-1,2,3,4-tetrahydronaphthalen-1-yl)carbamate]: the pIC50 is 8.06 in experiment [1] and 7.77 in experiment [2] (Homo sapiens, Jurkat, 72 h).
As for `CC1(C)CCc2ccc(-c3ccc(F)cc3)cc2C1NC(=O)O[C@@H]1CN2CCC1CC2` (stereo partly drawn) [Example 151, (S)-quinuclidin-3-yl (7-(4-fluorophenyl)-2,2-dimethyl-1,2,3,4-tetrahydronaphthalen-1-yl)carbamate], the negative logarithm of the IC50 (pIC50) is 8.14 in experiment [1] and 7.48 in experiment [2] (Homo sapiens, Jurkat, 72 h).
As to `CC1(C)CCc2ccc(-c3ccc(Cl)cc3)cc2C1NC(=O)O[C@@H]1CN2CCC1CC2` (stereo partly drawn) [Example 152, (S)-quinuclidin-3-yl (7-(4-chlorophenyl)-2,2-dimethyl-1,2,3,4-tetrahydronaphthalen-1-yl)carbamate], the pIC50 in experiment [1] is 8.24; in experiment [2] (Homo sapiens, Jurkat, 72 h) it was 7.59.
Turning to `CC1(C)CCc2ccc(-c3ccc(C(F)(F)F)cc3)cc2C1NC(=O)O[C@@H]1CN2CCC1CC2` (stereo partly drawn) [Example 153, (S)-quinuclidin-3-yl (2,2-dimethyl-7-(4-(trifluoromethyl)phenyl)-1,2,3,4-tetrahydronaphthalen-1-yl)carbamate], the negative logarithm of the IC50 (pIC50) is 8.35 in experiment [1] and 8.26 in experiment [2] (Homo sapiens, Jurkat, 72 h).
As for `CC1(C)CCc2ccc(-c3ccc(OC(F)(F)F)cc3)cc2C1NC(=O)O[C@@H]1CN2CCC1CC2` (stereo partly drawn) [Example 154, (S)-quinuclidin-3-yl (2,2-dimethyl-7-(4-(trifluoromethoxy)phenyl)-1,2,3,4-tetrahydronaphthalen-1-yl)carbamate], the pIC50 in experiment [1] was 8.08; in experiment [2] (Homo sapiens, Jurkat, 72 h), 7.75.
